Measured values as given in US11702663B2, “Bacteria-based protein delivery” (Universitaet Basel, priority 2015, dated 2023).

Key:
[1] = test system: HeLa cells; assay type: cell-based, human
[2] = test system: B16F10 cells; assay type: cell-based, murine
[3] = test system: D2A1 cells; assay type: cell-based
[4] = test system: 4T1 cells; assay type: cell-based, murine
[5] = test system: HeLa cells; assay type: cell-based, human; remark: listed apart in the source
[6] = test system: HeLa cells; assay type: cell-based, human; remark: listed apart in the source
[7] = test system: HeLa cells; experiment: Western blotting of T3SS translocated proteins from infected cells (digitonin lysis); assay type: cell-based, human; settings: HeLa cells coinfected with strain delivering 2×TEV cleavage site substrate, 2 h, MOI of 100
Source text: Western blotting of T3SS translocated proteins from infected cells. HeLa cells in 6-well plates were infected at an MOI of 100 as described above. In case of coinfection with the TEV protease translocating Y. enterocolitica strain, the OD600 of the strains was set and the two bacterial suspensions were mixed in a tube at a ratio of 1:1 (if not otherwise indicated) before addition to the cells. At the end of the infection, the cells were washed twice with ice-cold PBS and collected by scraping in a small volume of ice-cold PBS. After centrifugation (16 000 rcf, 5 min, 4° C.) the pellet was dissolved in 0.002% digitonin supplemented with a protease inhibitor cocktail (Roche complete, Roche). The dissolved pellets were incubated for 5 minutes on ice and then centrifuged (16 000 rcf, 25 min, 4° C.). Supernatants were collected and analyzed for total protein content by […] (Pierce) before SDS PAGE and Western blotting using an anti-Myc (Santa Cruz, 9E11) or anti-Ink4C (Cell Signaling) antibody.

[8] = test system: B16F10 murine melanoma cells; assay type: cell-based
[9] = test system: 4T1 murine breast cancer cells; assay type: cell-based
[10] = test system: p38; assay type: cell-based, human
[11] = test system: Akt; assay type: cell-based, human
[12] = test system: HeLa cells; assay type: cell-based, human; remark: listed apart in the source
[13] = test system: zebrafish embryos; settings: in vivo

With “BH3 domain of murine BAX: YopE1-138 fusion to BH3 domain of murine BAX, codon optimized for Y. enterocolitica” the cell death [1] was “induce massive cell death”, the cell death [2] was “induce massive cell death” and the cell death [3] was “induce massive cell death”. The cell death [4] was “induce massive cell death”.

In the case of “BH3 domain of murine BID: YopE1-138 fusion to BH3 domain of murine tBID, codon optimized for Y. enterocolitica”, the cell death [1] is reported as “induce massive cell death”, the cell death [2] is reported as “induce massive cell death” and the cell death [3] is reported as “induce massive cell death”. For the same molecule, the cell death [4] was “induce massive cell death”.

With “BepA: YopE1-138 fusion to full length type IV effector BepA from B. henselae” the cAMP production [5] was “triggered cAMP production in expected amounts”.

For “BepAE305-end: YopE1-138 fusion to BepA E305-end containing the C-terminal Bid domain”, the cAMP production [5] was “triggered cAMP production in expected amounts”.

“BepG: YopE1-138 fusion to the Bid domain of the B. henselae effector BepG” was tested, and the cAMP production [5] was “failed to induce cAMP”.

In the case of “Murine tBID fused to full length SteA: full length SteA fused to murine tBID, delivered by S. enterica”, the “apoptosis induction (CASP3 p17 subunit)” value [6] is reported as “lead to apoptosis induction”.

“TEV protease: TEV protease (S219V variant) fused to YopE1-138” was tested, and the “activity of T3SS delivered TEV protease” value [7] was “functional”.

With “YopE1-138-(tBID BH3)2: murine BH3 domain of tBID fused to itself, fused to YopE1-138” the “IC50 (MOI), pBad-MycHisA based delivery compared with pYV encoded” value [8] was “slightly decreased IC50 value”, the “capacity of inducing apoptosis, IC50 (MOI needed to kill 50% of cells)” value [8] was “decreased upon delivery of tandem repeats of tBID BH3 domain as compared to a single tBID BH3 domain” and the “cell death (nuclear count)” value [8] was “more active than YopE1-138-(tBID-BH3) at lower MOI”. The “efficiency of cell killing, IC50 (MOI needed to kill 50% of cells)” value [8] was “decreased upon delivery of tandem repeats of tBID BH3 domain as compared to a single tBID BH3 domain”, the “IC50 (MOI), pBad-MycHisA based delivery compared with pYV encoded” value [9] was “slightly decreased IC50 value” and the “capacity of inducing apoptosis, IC50 (MOI needed to kill 50% of cells)” value [9] was “decreased upon delivery of tandem repeats of tBID BH3 domain as compared to a single tBID BH3 domain”. The “cell death (nuclear count)” value [9] was “more active than YopE1-138-(tBID-BH3) at lower MOI” and the “efficiency of cell killing, IC50 (MOI needed to kill 50% of cells)” value [9] was “decreased upon delivery of tandem repeats of tBID BH3 domain as compared to a single tBID BH3 domain”.

For “YopE1-138-(tBID-BH3)-(BAX-BH3): murine BH3 domain of tBID fused to murine BH3 domain of BAX, fused to YopE1-138”, the “cell death (nuclear count)” value [8] was “more active than YopE1-138-(tBID-BH3) at lower MOI” and the “cell death (nuclear count)” value [9] was “more active than YopE1-138-(tBID-BH3) at lower MOI”.

For “YopE1-138-(tBID-BH3): BH3 domain of murine tBID fused to YopE1-138, control for repeated domain constructs”, the “cell death (nuclear count)” value [8] was “triggered cell death” and the “cell death (nuclear count)” value [9] was “triggered cell death”.

“YopE1-138-BID: YopE1-138 fusion to human BH3 interacting-domain death agonist (BID)” was tested, and the “apoptosis induction / cell death” value [1] was “failed to induce apoptosis”.

“YopE1-138-OspF: YopE1-138 fusion to S. flexneri type III effector OspF, a phosphothreonine lyase” was tested, and the “TNFα-induced p38 phosphorylation” value [10] was “TNFα-induced phosphorylation was abolished”.

In the case of “YopE1-138-SopB: YopE1-138 fusion to Salmonella type III effector SopB”, the “phosphorylation of Akt at T308 and S473” value [11] is reported as “induced a strong phosphorylation of Akt at T308 and S473”.

“YopE1-138-SopE-Myc: YopE1-138 fusion to SopE with MycHis tag” was tested, and the F-actin rearrangements [12] was “triggered massive F-actin rearrangements”.

With “YopE1-138-SopE: YopE1-138 fusion to SopE from Salmonella enterica, a guanine nucleotide exchange factor” the “changes in the actin network” value [12] was “induced dramatic changes in the actin network”, the “first changes in the actin cytoskeleton observed” value [12] was 2 min p.i and the “phosphorylation of Akt at T308 and S473” value [11] was “had no effect on Akt”.

For “YopE1-138-SptP: YopE1-138 fusion to SptP, a GTPase activating protein (GAP) for Cdc42”, the “effect of co-infection on F-actin rearrangements triggered by YopE1-138-SopE-Myc” value [12] was “abolished this effect in a dose dependent manner”.

In the case of “YopE1-138-tBID: YopE1-138 fusion to human truncated BID (tBID)”, the “apoptosis induction / cell death” value [1] is reported as “triggered cell death in larger extend than the well-characterized apoptosis inducer staurosporin”, the “apoptotic response (confocal images, mitochondrial integrity)” value [1] is reported as “induces a rapid apoptotic response” and the “production of CASP3 p17 subunit” value [1] is reported as “lead to the production of CASP3 p17 subunit, even in larger amounts as with staurosporin”.

For “YopE1-138-z-BIM: YopE1-138 fusion to zebrafish apoptosis inducer z-BIM”, the “apoptosis induction / cell death” value [1] was “showed clear signs of cell death”, the “apoptosis in nearby cells, automated image analysis on maximum intensity z projections” value [13] was “induce apoptosis in nearby cells by far more than control bacteria do” and the “cleaved CASP3 (p17) staining in regions surrounding the bacteria” value [13] was “strong increase in presence of cleaved CASP3”.

“murine tBID: murine tBID codon optimized for Y. enterocolitica fused to YopE1-138” was tested, and the cell death [1] was “triggered cell death”, the cell death [2] was “triggered cell death” and the cell death [3] was “triggered cell death”. For the same molecule, the cell death [4] was “triggered cell death”.

B1: SteA1-20 fused murine tBID: 20 N-terminal amino acids of SteA fused to murine tBID, delivered by S. enterica (protein)
chain: MPYTSVSTYARALSGNKLPHGTGSQASRSFNQGRIEPDSESQEEIIHNIARHLAQIGDEMDHNIQPTLVRQLAAQFMNGSLSEEDKRNCLAKALDEVKTAFPRDMENDKAMLIMTMLLAKKVASHAPSLLRDVFHTTVNFINQNLFSYVRNLVRNEMD
modifications: SteA1-20 - S. enterica codon optimized murine t-BID
notes: 20 N-terminal amino acids of SteA fused to murine tBID, delivered by S. enterica
For B1, the “apoptosis induction (CASP3 p17 subunit)” value [6] was “failed to induce apoptosis”.
